Experimental findings from article PMC9224512, “New Insights into the Determinants of Specificity in Human Type I Arginase: Generation of a Mutant That Is Only Active with Agmatine as Substrate” (International Journal of Molecular Sciences, 2022) are described below.

Substitutions are numbered along the chain they refer to.

Common to all, as to assay type: biochemical
In assay [1] the target is T1, human arginase type I N130D-S137C-N139D (Homo sapiens, UniProt P05089, N130D/N139D/S137C).
T1 sequence (P05089 1-322 N130D/S137C/N139D): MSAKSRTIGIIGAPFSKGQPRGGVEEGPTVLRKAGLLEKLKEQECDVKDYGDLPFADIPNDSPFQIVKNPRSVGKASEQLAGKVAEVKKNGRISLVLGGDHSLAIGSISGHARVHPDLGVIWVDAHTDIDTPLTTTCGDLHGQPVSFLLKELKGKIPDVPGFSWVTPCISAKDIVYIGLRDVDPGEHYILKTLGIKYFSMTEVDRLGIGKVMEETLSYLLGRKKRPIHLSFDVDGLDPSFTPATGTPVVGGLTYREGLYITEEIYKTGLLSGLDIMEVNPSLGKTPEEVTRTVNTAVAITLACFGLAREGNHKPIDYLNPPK
Put plainly: Kinetic and inhibition studies, triple mutant. On the procedure:
(§1) Bacterial cultures were grown with shaking at 37 °C in Luria Broth media, in the presence of ampicillin (100 μg/mL). The wild-type and mutant human liver arginase cDNAs were directionally cloned into the pBluescript II KS(+) expression vector and then expressed in E. coli JM109, following induction with 1 mM isopropyl β-D-thiogalactopyranoside. The bacterial cells were disrupted by sonication on ice (5 × 30 s pulses), centrifuged for 20 min at 12,000× g, and the obtained supernatant was precipitated with ammonium sulfate (60% saturation). The pellet, collected by centrifugation at 12,000× g for 10 min, was re-suspended in buffer 5 mM Tris–HCl (pH 7.5) containing 2 mM MnCl2 and dialyzed for 6 h at 4 °C against the same buffer. After incubation with 5 mM MnCl2 for 10 min at 60 °C, the enzyme variants were purified as previously described. The purity of the enzymes was evaluated by SDS–PAGE stained by Coomassie blue and immunodetection using an anti- rat arginase I antibody.
(§2) The single, double, triple, and chimera variants of human arginase type I were obtained by PCR, using the QuickChange site-directed mutagenesis kit (Stratagene, La Jolla, CA, USA); the plasmid pBluescript II KS(+) containing the human liver arginase cDNA was used as template. To obtain the chimeric species of human arginase type I, serial mutations were made in each loop to be modified, using as template DNA the wild-type arginase gene or the previous done mutation, subcloned in the plasmid pBluescript II KS (+). Specifically, the residues present in the arginase structure were replaced by those corresponding to the agmatinase sequence of E. coli.
All assays were initiated by adding the enzyme to a previously equilibrated buffer with the substrate in solution (the concentrations of used substrates were between 0.2–3 fold the Km). Urea was determined by a colorimetric method with α-isonitrosopropiophenone. The protein concentrations were determined by the Bradford’s method, with bovine serum albumin as standard. […]

Assay [2] has as its target T2, Chimera A1 (I129T/N130Y/T131A) of human arginase type I (Homo sapiens, UniProt P05089, I129T/N130Y/T131A).
T2 sequence (P05089 1-322 I129T/N130Y/T131A): T1 sequence (P05089 1-322 N130D/S137C/N139D) with I129T, D130Y, T131A, C137S, D139N
Put plainly: Kinetic and inhibition studies, Chimera A1. On the procedure:
as §1, §2
(§3) All assays were initiated by adding the enzyme to a previously equilibrated buffer with the substrate in solution (the concentrations of used substrates were between 0.2–3 fold the Km). Urea was determined by a colorimetric method with α-isonitrosopropiophenone. The protein concentrations were determined by the Bradford’s method, with bovine serum albumin as standard. Initial velocity and enzymatic inhibition experiments were performed in duplicate and repeated three times. The inhibitory patterns were initially determined by double reciprocal plots and re-plots of intercepts and slopes versus inhibitor concentrations. […] Velocities are expressed as μmol of urea/10 min.

Assay [3] has as its target T3, type I human arginase V182E (Homo sapiens, UniProt P05089, V182E).
T3 sequence (P05089 1-322 V182E): T1 sequence (P05089 1-322 N130D/S137C/N139D) with D130N, C137S, D139N, V182E
As to the kind of experiment: Kinetic and inhibition studies, V182E mutant. To be noted: substrate arginine. On the procedure:
as §1, §2, §3

Assay [4] deals with T4, type I human arginase D181T/V182E (Homo sapiens, UniProt P05089, D181T/V182E).
T4 construct: made in house; host or cells: E. coli JM109
T4 sequence (P05089 1-322 D181T/V182E): T1 sequence (P05089 1-322 N130D/S137C/N139D) with D130N, C137S, D139N, D181T, V182E
As to the kind of experiment: Kinetic and inhibition studies, D181T/V182E double mutant. To be noted: substrate arginine. On the procedure: as §1, §2, §3

The target in assay [5] is T5, type I human arginase D181T/V182E + ins F (Homo sapiens, UniProt P05089, D181E/D181T/INS180T/V182E/V182F).
T5 sequence (P05089 with tags, fused parts or gaps INS180T/D181E/V182F): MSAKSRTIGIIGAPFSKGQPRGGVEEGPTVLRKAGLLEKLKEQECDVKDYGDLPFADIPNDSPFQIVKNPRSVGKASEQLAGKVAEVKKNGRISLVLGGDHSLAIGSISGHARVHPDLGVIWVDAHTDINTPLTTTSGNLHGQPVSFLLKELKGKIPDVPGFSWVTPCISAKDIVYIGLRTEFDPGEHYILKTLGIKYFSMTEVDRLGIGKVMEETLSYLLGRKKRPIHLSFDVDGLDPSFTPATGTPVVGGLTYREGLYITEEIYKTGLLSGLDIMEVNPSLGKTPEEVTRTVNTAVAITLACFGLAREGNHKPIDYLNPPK
Put plainly: Kinetic and inhibition studies, D181T/V182E + ins F. Conditions: substrate arginine. On the procedure:
as §1, §2, §3

[6] abbreviates: substrate = labelled compound, pH 9.5, 2 mM Mn2+.

Turning to `N=C(N)NCCC[C@H](N)C(=O)O` [Arginine, L-arginine], the kcat in assay [1] (substrate = labelled compound) was found to be 4 s⁻¹; in assay [2] (substrate = labelled compound, n/a = no activity with the substrate) it was 6.2 ± 0.4 s⁻¹; in assay [3], 187 ± 10 s⁻¹; in assay [4] it was 188 ± 10 s⁻¹; in assay [5], 8.1 ± 1 s⁻¹. For the same compound, the Km in assay [1] (setting [6]) was found to be 6.9 mM; in assay [2] (setting [6]), 2.5 ± 0.5 mM; in assay [3] (pH 9.5, 2 mM Mn2+) it was 2.4 ± 0.2 mM; in assay [4] (pH 9.5, 2 mM Mn2+), 32 ± 5 mM; in assay [5] (pH 9.5, 2 mM Mn2+), 20 ± 5 mM. Further, the “arginase activity, % of the enzymatic activity of wild-type arginase” value in assay [2] (substrate arginine) is reported as 3.5%. For the same compound, in assay [2] (substrate arginine), the “decrease of catalytic constant (kcat) compared with wild-type enzyme” value is reported as “approximately 30 times”. The “kcat, times lower than the wild-type arginase” value in assay [5] amounted to 24 times.
On to `NCCC[C@H](N)C(=O)O` [Ornithine, L-ornithine], for which, in assay [1] (read-out: Ki^orn), the Ki amounted to 5.4 mM. The “Inhibition type” value in assay [2] (substrate arginine) is recorded as “Competitive”; in assay [3] it was “Competitive”; in assay [4], “mixed-type inhibition”; in assay [5], “Competitive”. The “Kis (Ki)” value in assay [2] (substrate arginine) is 60 ± 2 mM; in assay [4], 71 ± 12 mM. Also, the Kis amounted to 3.2 ± 0.2 mM in assay [3] and 18 ± 6 mM in assay [5].
